Patent publication US20060110803A1 (Crucell Holland B.V., priority 2003, published 2006)

System: antibodies in sera of individuals which have been and/or are infected by SARS-CoV (SARS-green, SARS-yellow, 1a, 1b, 2, 6, 37, 62, London)
Format: binding, human

Sequence | recognition by sera of SARS-CoV infected individuals, looped/cyclic form | recognition by sera of SARS-CoV infected individuals, linear form
LLFLTLTSGSDLDRC [SEQ ID NO:44] | recognized in looped/cyclic form | 
TAGWTFGAGAALQIP [SEQ ID NO:893] |  | recognized in linear form
TLTSGSDLDRCTTFD [SEQ ID NO:48] | recognized in looped/cyclic form | 
LDKVEAEVQIDRLIT [SEQ ID NO:994] | recognized in looped/cyclic form | 
IFLLFLTLTSGSDLD [SEQ ID NO:42] | recognized in looped/cyclic form | 
NQNAQALNTLVKQLS [SEQ ID NO:963] | recognized in looped/cyclic form | 
LVSGTATAGWTFGAG [SEQ ID NO:887] |  | recognized in linear form
DSFKEELDKYFKNHT [SEQ ID NO:1144] | recognized in looped/cyclic form | 
DRLNEVAKNLNESLI [SEQ ID NO:1180] | recognized in looped/cyclic form | 
SSMRGVYYPDEIFRS [SEQ ID NO:74] | recognized in looped/cyclic form | 
EVMPVSMAKTSVDCN [SEQ ID NO:735] | recognized in looped/cyclic form | 
AKNLNESLIDLQELG [SEQ ID NO:1186] | recognized in looped/cyclic form | 
VVNQNAQALNTLVKQ [SEQ ID NO:961] | recognized in looped/cyclic form | 
DKVEAEVQIDRLITG [SEQ ID NO:995] | recognized in looped/cyclic form | 
KFNGLTVLPPLLTDD [SEQ ID NO:864] | recognized in looped/cyclic form | 
TATAGWTFGAGAALQ [SEQ ID NO:891] |  | recognized in linear form
FSPDGKPCTPPALNC [SEQ ID NO:488] |  | recognized in linear form
LFLTLTSGSDLDRCT [SEQ ID NO:45] | recognized in looped/cyclic form | 
ALVSGTATAGWTFGA [SEQ ID NO:886] |  | recognized in linear form
VYDPLQPELDSFKEE [SEQ ID NO:1135] | recognized in looped/cyclic form | 
IINNTVYDPLQPELD [SEQ ID NO:1130] | recognized in looped/cyclic form | 

Sequence | recognition by sera of SARS-CoV infected individuals, looped/cyclic form | recognition by sera of SARS-CoV infected individuals, linear form
MRGVYYPDEIFRSDT [SEQ ID NO:76] | recognized in looped/cyclic form | 
YVWLGFIAGLIAIVM [SEQ ID NO:1211] | recognized in looped/cyclic form | 
TQHTSSMRGVYYPDE [SEQ ID NO:70] | recognized in looped/cyclic form | 
QIQESLTTTSTALGK [SEQ ID NO:943] | recognized in looped/cyclic form | 
RLDKVEAEVQIDRLI [SEQ ID NO:993] | recognized in looped/cyclic form | 
DPLQPELDSFKEELD [SEQ ID NO:1137] | recognized in looped/cyclic form | 
LDSFKEELDKYFKNH [SEQ ID NO:1143] | recognized in looped/cyclic form | 
ESLTTTSTALGKLQD [SEQ ID NO:946] | recognized in looped/cyclic form | 
EVAKNLNESLIDLQE [SEQ ID NO:1184] | recognized in looped/cyclic form | 
QESLTTTSTALGKLQ [SEQ ID NO:945] | recognized in looped/cyclic form | 
LGFIAGLIAIVMVTI [SEQ ID NO:1214] | recognized in looped/cyclic form | 
ELDKYFKNHTSPDVD [SEQ ID NO:1147] | recognized in looped/cyclic form | 
MFIFLLFLTLTSGSD [SEQ ID NO:40] | recognized in looped/cyclic form | 
VNQNAQALNTLVKQL [SEQ ID NO:962] | recognized in looped/cyclic form | 
AKTSVDCNMYICGDS [SEQ ID NO:742] |  | recognized in linear form
KTSVDCNMYICGDST [SEQ ID NO:743] |  | recognized in linear form
TPPALNCYWPLNDYG [SEQ ID NO:496] | recognized in looped/cyclic form | 
KNHTSPDVDLGDISG [SEQ ID NO:1153] | recognized in looped/cyclic form | 
FLLFLTLTSGSDLDR [SEQ ID NO:43] | recognized in looped/cyclic form | 
PCTPPALNCYWPLND [SEQ ID NO:494] | recognized in looped/cyclic form | 
SPDVDLGDISGINAS [SEQ ID NO:1157] | recognized in looped/cyclic form | 

Sequence | recognition by sera of SARS-CoV infected individuals, looped/cyclic form | recognition by sera of SARS-CoV infected individuals, linear form
NHTSPDVDLGDISGI [SEQ ID NO:1154] | recognized in looped/cyclic form | 
NGLTVLPPLLTDDMI [SEQ ID NO:866] | recognized in looped/cyclic form | 
PELDSFKEELDKYFK [SEQ ID NO:1141] | recognized in looped/cyclic form | 
PPALNCYWPLNDYGF [SEQ ID NO:497] | recognized in looped/cyclic form | 
SMRGVYYPDEIFRSD [SEQ ID NO:75] | recognized in looped/cyclic form | 
VDCNMYICGDSTECA [SEQ ID NO:746] |  | recognized in linear form
DCNMYICGDSTECAN [SEQ ID NO:747] |  | recognized in linear form
LQDVVNQNAQALNTL [SEQ ID NO:958] | recognized in looped/cyclic form | 
HTSSMRGVYYPDEIF [SEQ ID NO:72] | recognized in looped/cyclic form | 
IQESLTTTSTALGKL [SEQ ID NO:944] | recognized in looped/cyclic form | 
NTVYDPLQPELDSFK [SEQ ID NO:1133] | recognized in looped/cyclic form | 
TTTSTALGKLQDVVN [SEQ ID NO:949] | recognized in looped/cyclic form | 
NNTVYDPLQPELDSF [SEQ ID NO:1132] | recognized in looped/cyclic form | 
SRLDKVEAEVQIDRL [SEQ ID NO:992] | recognized in looped/cyclic form | 
CTPPALNCYWPLNDY [SEQ ID NO:495] | recognized in looped/cyclic form | 
FIAGLIAIVMVTILL [SEQ ID NO:1216] | recognized in looped/cyclic form | 
SGSDLDRCTTFDDVQ [SEQ ID NO:51] | recognized in looped/cyclic form | 
NMYICGDSTECANLL [SEQ ID NO:749] |  | recognized in linear form
MYICGDSTECANLLL [SEQ ID NO:750] |  | recognized in linear form
WLGFIAGLIAIVMVT [SEQ ID NO:1213] | recognized in looped/cyclic form | 
PLQPELDSFKEELDK [SEQ ID NO:1138] | recognized in looped/cyclic form | 

Sequence | recognition by sera of SARS-CoV infected individuals, looped/cyclic form | recognition by sera of SARS-CoV infected individuals, linear form
DKYFKNHTSPDVDLG [SEQ ID NO:1149] | recognized in looped/cyclic form | 
NVPFSPDGKPCTPPA [SEQ ID NO:485] |  | recognized in linear form
HTSPDVDLGDISGIN [SEQ ID NO:1155] | recognized in looped/cyclic form | 
ITTEVMPVSMAKTSV [SEQ ID NO:732] | recognized in looped/cyclic form | 
FLTLTSGSDLDRCTT [SEQ ID NO:46] | recognized in looped/cyclic form | 
TTEVMPVSMAKTSVD [SEQ ID NO:733] | recognized in looped/cyclic form | 
CNMYICGDSTECANL [SEQ ID NO:748] |  | recognized in linear form
LNEVAKNLNESLIDL [SEQ ID NO:1182] | recognized in looped/cyclic form | 
YICGDSTECANLLLQ [SEQ ID NO:751] |  | recognized in linear form
GVYYPDEIFRSDTLY [SEQ ID NO:78] | recognized in looped/cyclic form | 
VSGTATAGWTFGAGA [SEQ ID NO:888] |  | recognized in linear form
ICGDSTECANLLLQY [SEQ ID NO:752] |  | recognized in linear form
GTATAGWTFGAGAAL [SEQ ID NO:890] |  | recognized in linear form
VWLGFIAGLIAIVMV [SEQ ID NO:1212] | recognized in looped/cyclic form | 
YDPLQPELDSFKEEL [SEQ ID NO:1136] | recognized in looped/cyclic form | 
SNVPFSPDGKPCTPP [SEQ ID NO:484] |  | recognized in linear form
RGVYYPDEIFRSDTL [SEQ ID NO:77] | recognized in looped/cyclic form | 
INNTVYDPLQPELDS [SEQ ID NO:1131] | recognized in looped/cyclic form | 
LQPELDSFKEELDKY [SEQ ID NO:1139] | recognized in looped/cyclic form | 
